Results taken from ChEMBL document CHEMBL1127169, “Syntheses of new 3-oxa-methano-PGI1 derivatives and their biological properties” (Bioorg Med Chem Lett, 1993).
≈ marks a conversion by molar mass, not a printed value.

How the values were obtained:
Oryctolagus cuniculus [1] = species: Oryctolagus cuniculus; experiment: The compound was tested for inhibition of rabbit platelet aggregation induced by ADP, activity compared with PGE1 as standard was found to be <1/400; format: functional
Canis familiaris = species: Canis familiaris; experiment: The compound was tested for inhibition of dog platelet aggregation induced by ADP; format: functional; conditions: Canis lupus familiaris
Cavia porcellus = species: Cavia porcellus; experiment: The compound was tested for inhibition of guinea pig platelet aggregation induced by ADP; format: functional
Homo sapiens = species: Homo sapiens; experiment: The compound was tested for inhibition of human platelet aggregation induced by ADP; format: functional
Oryctolagus cuniculus [2] = species: Oryctolagus cuniculus; experiment: The compound was tested for inhibition of rabbit platelet aggregation induced by ADP; activity compared with PGE1 as standard was found to be 1/1.2; format: functional
Oryctolagus cuniculus [3] = species: Oryctolagus cuniculus; experiment: The compound was tested for inhibition of rabbit platelet aggregation induced by ADP; format: functional, organism-based
Oryctolagus cuniculus [4] = species: Oryctolagus cuniculus; experiment: The compound was tested for inhibition of rabbit platelet aggregation induced by arachidonic acid; format: functional
Oryctolagus cuniculus [5] = species: Oryctolagus cuniculus; experiment: The compound was tested for inhibition of rabbit platelet aggregation induced by collagen; format: functional
Rattus norvegicus = species: Rattus norvegicus; experiment: The compound was tested for inhibition of rat platelet aggregation induced by ADP; format: functional
Oryctolagus cuniculus [6] = species: Oryctolagus cuniculus; experiment: The compound was tested for inhibition of rabbit platelet aggregation induced by ADP, activity compared with PGE1 as standard was found to be 1/3.6; format: functional
Oryctolagus cuniculus [7] = species: Oryctolagus cuniculus; experiment: The compound was tested for inhibition of rabbit platelet aggregation induced by ADP, activity compared with PGE1 as standard; format: functional
Oryctolagus cuniculus [8] = species: Oryctolagus cuniculus; experiment: The compound was tested for inhibition of rabbit platelet aggregation induced by ADP, activity compared with PGE1 as standard was found to be 1/80.; format: functional

SMILES | Relative activity (Oryctolagus cuniculus [1]) | IC50 (Canis familiaris) [µg/mL] | IC50 (Cavia porcellus) [µg/mL] | IC50 (Homo sapiens) [µg/mL] | IC50 (Oryctolagus cuniculus [3]) [µg/mL] | IC50 (Oryctolagus cuniculus [4]) [µg/mL] | IC50 (Oryctolagus cuniculus [5]) [µg/mL] | IC50 (Rattus norvegicus) [µg/mL] | also measured
CCCC[C@H](C)C[C@H](O)/C=C/[C@@H]1[C@H]2C[C@H](CCOCC(=O)O)C[C@H]2C[C@@H]1O | < 0.0025 | – | – | – | – | – | – | – | –
CCCC[C@H](C)C[C@H](O)/C=C/[C@@H]1[C@H]2C[C@H](CCOCC(=O)O)C[C@H]2C[C@H]1O | – | 0.0043 (≈ 0.0112 µM) | 0.0031 (≈ 0.0081 µM) | 0.0125 (≈ 0.0327 µM) | 0.0241 (≈ 0.063 µM) | 0.0476 (≈ 0.124 µM) | 0.0183 (≈ 0.0478 µM) | 0.0098 (≈ 0.0256 µM) | Relative activity (Oryctolagus cuniculus [2]): 0.833
CCCC[C@@H](C)C[C@H](O)/C=C/[C@@H]1[C@H]2C[C@H](CCOCC(=O)O)C[C@H]2C[C@H]1O | – | – | – | – | – | – | – | – | Relative activity (Oryctolagus cuniculus [6]): 0.278
CCCCC[C@H](O)/C=C/[C@H]1[C@H](O)CC(=O)[C@@H]1CCCCCCC(=O)O [ALPROSTADIL] | – | 0.0038 (≈ 0.0107 µM) | 0.0025 (≈ 0.00705 µM) | 0.0136 (≈ 0.0384 µM) | 0.0207 (≈ 0.0584 µM) | 0.0359 (≈ 0.101 µM) | 0.0132 (≈ 0.0372 µM) | 0.0344 (≈ 0.097 µM) | Relative activity (Oryctolagus cuniculus [7]): 1
CCCC[C@H](C)C[C@@H](O)/C=C/[C@@H]1[C@H]2C[C@H](CCOCC(=O)O)C[C@H]2C[C@H]1O | < 0.0025 | – | – | – | – | – | – | – | –
CCCCC[C@H](O)/C=C/[C@@H]1[C@H]2C[C@H](CCCCC(=O)O)C[C@H]2C[C@H]1O | – | – | – | – | – | – | – | – | Relative activity (Oryctolagus cuniculus [8]): 0.0125
